Usually inhibition in vivo stands for how much of the control response was suppressed. One may read the IC50 as the midpoint of a concentration-inhibition curve.

This is an account of results in patent publication US6562843B1, “Substituted 3-pyridyl-4-arylpyrroles, and related therapeutic and prophylactic methods” (Ortho-McNeil Pharmaceutical, Inc., priority 1999, dated 2003).

Experiment [1] has as its target T1, purified recombinant p38 (6×His-p38 expressed in E.coli) (Homo sapiens, UniProt Q16539).
T1 construct: 6xHis; made in house; host or cells: E. coli
In words: p38 Inhibition In-Vitro Enzyme Assay. It is filed as biochemical. The settings on record: myelin basic protein substrate, 33P-ATP; for inhibition at 10 µM: read-out: % p38 inhib @ 10 μM. The method, then:
A. p38 Inhibition In-Vitro Enzyme Assay
A solution (38 μL) of purified recombinant p38 (6×His-p38 expressed in E.coli), myelin basic protein substrate (determined empirically), and a buffer of pH 7.5 (Hepes:25 mM, MgCl2:10 mM, MnCl2:10 mM) were added to 92 wells of a 96-well round bottom polypropylene plate. The amount of enzyme was determined empirically based on the linear range of the assay and the acceptable signal to noise ratio. The remaining wells were used for control “CTRL”) and background (“BKG”). The CTRL was prepared with the enzyme, substrate buffer and 2% DMSO, and the BKG was prepared with substrate buffer and 2% DMSO.
A solution (12 μL) of the test compound in DMSO was added to the testing wells. […] The ATP/^33P-ATP solution (10 μL containing 50 μM unlabeled ATP and 1 μCi ^33P-ATP) was added to all wells and the completed plates were mixed and incubated at 30° C. for 30 min. Ice-cold 50% TCA/10 mM sodium phosphate (60 μL) was added to each well and the plates were kept on ice for 15 min. The contents of each well were transferred to the wells of a 96-well filterplate (Millipore, MultiScreen-DP) and the filterplate was placed on a vacuum manifold fitted with a waste collection tray. The wells were washed five times with 10% TCA/10 mM sodium phosphate (200 μL) under vacuum. MicroScint-20 scintillant was added, and the plates were sealed using Topseal-S sheets and counted in a Packard TopCount scintillation counter using a ^33P liquid program with color quench correction, where the output is in color quench-corrected cpm. The % inhibition of each test compound as shown in Table 2 was calculated by the following formula: % inhibition=[1−(sample−BKG)/(CTRL−BKG)]×100.
[…] In addition, the IC50 was calculated for some compounds using the Deltagraph 4-parameter curve-fitting program.

For experiment [2], the system named is LPS-induced TNF-α production. Nature of the experiment: In Vivo Rodent Assay for Inhibition of TNF-α Production (mice). The settings on record: oral dosing, LPS 1 mg/kg i.p., serum TNF-α. Also on record: species or system Mice (BALB/cJ females). The method, then:
C. In Vivo Rodent Assay for Inhibition of TNF-α Production
Mice (BALB/cJ females, Jackson Laboratories) or rats (Lewis males, Charles River) were fasted for 30 min prior to oral dosing with 5-10 mL/kg of test compound at 5-50 mg/kg. Thirty minutes after dosing, the animals were injected intraperitoneally with LPS at 1 mg/kg and returned to their cages for 1 h. Animals were anesthetized by CO2, exsanguinated by cardiac puncture and whole blood collected (0.1-0.7 mL). The blood was allowed to clot and serum was transferred to a centrifuge tube. This sample was centrifuged, and serum was collected, aliquoted and frozen at −80° C. Samples were tested by commercial ELISA's for TNF-α (Endogen for mouse TNF-α and Biosource for rat TNF-α).

For another experiment, the system named is TNF-α production. Nature of the experiment: In-Vitro Whole Cell Assay for TNF-α Inhibition (LPS-stimulated PBMC, ELISA). It is filed as cell-based. The settings on record: LPS overnight, TNF-α by ELISA. The method, then:
B. In-Vitro Whole Cell Assay for TNF-α Inhibition
Freshly obtained venous blood was anticoagulated with heparin, diluted with an equal volume of phosphate buffered saline (“PBS”) and placed in a sterile tube or other container. Aliquots (30 mL) of this mixture were transferred to centrifuge tubes which were underlaid with Ficoll-Hypaque (15 mL). The prepared tubes were centrifuged at 400×g, without braking, for 30 min at room temperature. Approximately ½ to ⅔ of the platelet layer above the mononuclear cell band was removed with a pipette. The majority of the mononuclear cell layer was carefully removed using a pipette and these PBMC's were diluted with PBS and spun at 600×g for 15 min. The resulting PBMC's were washed with another portion of PBS and spun at 400×g for 10 min at room temperature. The recovered pellets were diluted in low endotoxin RPMI/1% FCS culture medium, and gave a cell concentration of 0.5-2.0×10^6 PMBC/mL. A small volume of the suspension was removed for counting on a hemocytometer and the remaining preparation was centrifuged at 200×g for 15 min at room temperature. The recovered pelleted PMBC's were resuspended in RPMI/1% FCS to a concentration of 1.67×10^6/mL.
To run the assay, the PBMC suspension (180 μL) was transferred to duplicate wells of a 96-well flat-bottom microtiter plate and incubated for 1 h at 37° C. A solution of test compound (10 μL: prepared at 20× the desired final concentration) was added to each well and the plate was incubated for 1 h at 37° C. A solution (10 μL) of LPS in RPMI/1% FCS (200 ng/mL) was added and the wells were incubated overnight at 37° C. The supernate (100 μL) was removed from each well and diluted with RPMI/1% FCS (400 μL). The samples were analyzed for TNF-α using a commercial ELISA kit (Genzyme).
The compounds were tested for their ability to inhibit TNF-α production. The IC50 nM results are listed for the indicated compounds.
For orientation: ELISA stands for enzyme-linked immunosorbent assay.

T1 sequence (Q16539 whole entry): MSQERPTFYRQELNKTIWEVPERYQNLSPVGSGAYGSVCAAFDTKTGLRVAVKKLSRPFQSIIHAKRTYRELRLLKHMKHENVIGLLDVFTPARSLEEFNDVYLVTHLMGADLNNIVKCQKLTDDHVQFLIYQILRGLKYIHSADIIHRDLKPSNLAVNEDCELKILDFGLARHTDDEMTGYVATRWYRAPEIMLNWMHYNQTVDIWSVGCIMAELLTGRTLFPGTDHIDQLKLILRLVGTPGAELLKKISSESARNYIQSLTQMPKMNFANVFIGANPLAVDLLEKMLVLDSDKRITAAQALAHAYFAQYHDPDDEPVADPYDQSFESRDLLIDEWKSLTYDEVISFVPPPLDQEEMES

`O=[N+]([O-])c1ccc(-n2cc(-c3ccc(F)cc3)c(-c3ccncc3)c2CCCc2ccccc2)cc1` [compound 31, 4-(4-Fluorophenyl)-1-(4-nitrophenyl)-2-(3-phenylpropyl)-3-(4-pyridyl)pyrrole]: the inhibition at 10 µM in experiment [1] came to 67%. For the same compound, the inhibition in vivo at 10 mg/kg in experiment [2] (Mus musculus, 1 h, 10 mg/kg) is 47%. This compound also registered an IC50 with TNF-α production of 15 nM.

In the case of `Fc1ccc(-c2c[nH]c(CCCc3ccccc3)c2-c2ccncc2)cc1` [compound 28, 4-(4-Fluorophenyl)-2-(3-phenylpropyl)-3-(4-pyridyl)pyrrole], the inhibition at 10 µM in experiment [1] came to 49%. In experiment [2] (Mus musculus, 1 h, 10 mg/kg), this compound had an inhibition in vivo at 10 mg/kg of 10%. In experiment [2] (Mus musculus, 1 h, 25 mg/kg), this compound yielded an inhibition in vivo at 25 mg/kg of 10%. In addition, in the experiment on TNF-α production, inhibition was half-maximal at 3.5 nM (IC50).

In the case of `O=[N+]([O-])c1ccc(-n2cc(-c3ccncc3)c(-c3ccc(F)cc3)c2)cc1` [compound 30], in experiment [1], the “% p38 inhib @ 10 μM” value is listed as 70%. For the same compound, the “TNF-α % Inhibition Mouse” value in experiment [2] (25 mg/kg) came to 53%. In the experiment on TNF-α production, the IC50 came out at 2 nM.

Regarding `COc1cccc(-c2cn(-c3ccc(C#N)cc3)cc2-c2ccncc2)c1` [compound 18], the “% p38 inhib @ 10 μM” value in experiment [1] is on record as 23%. The “TNF-α % Inhibition Mouse” value in experiment [2] (10 mg/kg) is 24%; in experiment [2] (25 mg/kg), 60%. In the experiment with TNF-α production, 15 nM corresponded to half-maximal inhibition (IC50).

As for `COc1cccc(-c2cn(C)cc2-c2ccncc2)c1` [compound 14], in experiment [1], the “% p38 inhib @ 10 μM” value stood at 43%. For the same compound, the “TNF-α % Inhibition Mouse” value in experiment [2] (10 mg/kg) stood at 41%; in experiment [2] (25 mg/kg) it was 71%. Half-maximal inhibition in the experiment with TNF-α production (IC50) required 55 nM.

On to `CC(=O)Nc1ccc(-n2cc(-c3ccc(F)cc3)c(-c3ccncc3)c2CCCc2ccccc2)cc1` [compound 32, 1-(4-Acetoaminophenyl)-4-(4-fluorophenyl)-2-(3-phenylpropyl)-3-(4-pyridyl)pyrrole], for which, in experiment [1], the inhibition at 10 µM is 38%. Further, at 10 mg/kg the inhibition in vivo in experiment [2] (Mus musculus, 1 h, 10 mg/kg) was 48%. For the same compound, 5 nM corresponded to half-maximal inhibition with TNF-α production (IC50).

On to `O=[N+]([O-])c1ccc(-n2cc(-c3ccncc3)c(-c3ccc(F)c(F)c3)c2)cc1` [compound 3], for which, in experiment [1], the “% p38 inhib @ 10 μM” value came out at 80%. Moreover, the “TNF-α % Inhibition Mouse” value in experiment [2] (10 mg/kg) stood at 81%. In the experiment on TNF-α production, the half-maximal inhibitory concentration (IC50) turned out to be 2 nM.
